Data on seven molecules can be found in patent US7935687B2, “Methods for treating spinal muscular atrophy using tetracycline compounds” (Paratek Pharmaceuticals, Inc., priority 2007, dated 2011).

For one test, the system named is E. coli (EC D1-209). Put plainly: Antibacterial MIC, gram negative. The format is cell-based. The following applies: CLSI methodology, 35° C., 18-24 hours.
A further test has as its system SMN2 mRNA. Put plainly: In vitro cell-free splicing assay for inclusion of exon 7. The class given is biochemical. The following applies: HeLa cell nuclear extract, 30° C., 3 hours. As for the experimental part:
The following example illustrates how tetracycline compound of the invention are active in an in vitro cell-free assay for the inclusion of exon 7 in […] mRNA. SMN1 and SMN2 pre-mRNA were prepared by in vitro transcription using T7 RNA polymerase of minigene templates that include exon 6, a truncated portion of intron 6, exon 7, intron 7 and a portion of exon 8 in the presence of ^32P-UTP. Labeled RNA was purified on a denaturing polyacrylamide gel followed by phenol extraction and ethanol precipitation of the RNA.
In vitro cell-free splicing of SMN1 and SMN2 transcripts was carried out in a 10 μl reaction volume at 30° C. for 3 hours. The reactions contained 10 fmol of labeled pre-mRNA, 30% (3 VI) HeLa cell nuclear extract (in 20 mM HEPES, pH 7.4, 20% (v/v) glycerol, 0.1M KC1, 0.2 mM EDTA), 1.3% (w/v) polyvinyl alcohol, 1.56 mM MgCl2, 32 mM HEPES, pH 7.4, 0.5 mM ATP, 20 mM creatine phosphate and either 2 μl of test compound (in 20 mM HEPES, pH 7.4, 0.1M KC1, 0.2 mM EDTA) or buffer alone. Following incubation, 200 μl of a solution containing 0.3M NaAc and 0.2% SDS was added to the reaction. Proteins were removed by extraction with an equal volume of phenol and RNA was precipitated with 2.5 volumes of ethanol. RNA was resuspended in formamide sample buffer and separated on a 9% urea-denaturing polyacrylamide gel. Quantitation of splicing was based on phosphorimage analysis (Fujix BAS2000 or Fujifilm FLA-5100). In this assay, percentage exon 7 inclusion averages 12% for the unmutated SMN1 mRNA and 4% for the SMN2 mRNA.
The in vitro activities for exon 7 splicing are expressed as the Emax (the maximum percentage exon 7 inclusion observed) and Cmax (the lowest compound concentration at which the maximum inclusion occurs in μM). For Emax, percentage inclusion values of less than 10% are indicated by “*”, values of 10-20% are indicated by “**”, and values greater than 20% are indicated by “***”. For Cmax data, concentrations of greater than 40 μM are indicated by “*”, concentrations between 40 and 10 μM are represented by “**” and concentrations of less than 10 μM are represented by “***”.

The next test relates to S. aureus (SA RN450). In words: Antibacterial MIC, gram positive. The format is cell-based. The note with it: CLSI methodology, 35° C., 18-24 hours.

For `COc1ccc(-c2ccc(O)c3c2CC2CC4C(N(C)C)C(O)=C(C(N)=O)C(=O)C4(O)C(O)=C2C3=O)cc1CNCC(N)=O` (stereo not shown) [BE], in the test on E. coli (EC D1-209), the “MIC Gram Negative (EC D1-209)” value was “* (weak antibacterial activity (greater than about 8 μg/mL))”. Also, in the test on SMN2 mRNA, the “Cmax (lowest compound concentration at which the maximum exon 7 inclusion occurs)” value (from here on “Cmax”) was “*** (concentrations of less than 10 μM)” and the “Emax (maximum percentage exon 7 inclusion observed)” value is “** (values of 10-20%)”. In the test with S. aureus (SA RN450), the “MIC Gram Positive (SA RN450)” value is “*** (Good antibacterial activity (e.g., less than about 4 μg/mL))”.

In the case of `CN(C)C1C(O)=C(C(N)=O)C(=O)C2(O)C(O)=C3C(=O)c4c(O)ccc(-c5coc(CN6CCCCC6)c5)c4CC3CC12` (stereo not shown) [BF], the “MIC Gram Negative (EC D1-209)” value against E. coli (EC D1-209) was “*** (Good antibacterial activity (e.g., less than about 4 μg/mL))”. In the test on SMN2 mRNA, the “Cmax” value was “*** (concentrations of less than 10 μM)” and the “Emax (maximum percentage exon 7 inclusion observed)” value is on record as “** (values of 10-20%)”. Further, the “MIC Gram Positive (SA RN450)” value in the test with S. aureus (SA RN450) is “*** (Good antibacterial activity (e.g., less than about 4 μg/mL))”.

`CON=Cc1ccc(-c2ccc(O)c3c2CC2CC4C(N(C)C)C(O)=C(C(N)=O)C(=O)C4(O)C(O)=C2C3=O)o1` (stereo not shown) [AZ]: in the test on E. coli (EC D1-209), the “MIC Gram Negative (EC D1-209)” value is recorded as “* (weak antibacterial activity (greater than about 8 μg/mL))”. In the test with SMN2 mRNA, the “Cmax” value is reported as “*** (concentrations of less than 10 μM)” and the “Emax (maximum percentage exon 7 inclusion observed)” value is on record as “** (values of 10-20%)”. The “MIC Gram Positive (SA RN450)” value against S. aureus (SA RN450) is recorded as “*** (Good antibacterial activity (e.g., less than about 4 μg/mL))”.

On to `COC(=O)C1CCN(Cc2ccc(O)c3c2CC2CC4C(N(C)C)C(O)=C(C(N)=O)C(=O)C4(O)C(O)=C2C3=O)CC1` (stereo not shown) [Compound AK], for which, in the test with E. coli (EC D1-209), the “MIC Gram Negative (EC D1-209)” value was “** (modest antibacterial activity (between about 4 and 8 μg/mL))”. Also, in the test on SMN2 mRNA, the “Cmax” value is “** (concentrations between 40 and 10 μM)”; the “Emax (maximum percentage exon 7 inclusion observed)” value is on record as “* (percentage inclusion values of less than 10%)”. Moreover, the “MIC Gram Positive (SA RN450)” value with S. aureus (SA RN450) was “*** (Good antibacterial activity (e.g., less than about 4 μg/mL))”.

As for `CNCCNC(=O)c1cccc(-c2ccc(O)c3c2CC2CC4C(N(C)C)C(O)=C(C(N)=O)C(=O)C4(O)C(O)=C2C3=O)c1` (stereo not shown) [M], the “MIC Gram Negative (EC D1-209)” value with E. coli (EC D1-209) is reported as “* (weak antibacterial activity (greater than about 8 μg/mL))”. In the test with SMN2 mRNA, the “Cmax” value was “** (concentrations between 40 and 10 μM)”; the “Emax (maximum percentage exon 7 inclusion observed)” value is “*** (values greater than 20%)”. Besides, the “MIC Gram Positive (SA RN450)” value in the test on S. aureus (SA RN450) is “** (modest antibacterial activity (between about 4 and 8 μg/mL))”.

As to `CN(C)C1C(O)=C(C(N)=O)C(=O)C2(O)C(O)=C3C(=O)c4c(O)ccc(C(=O)Cc5cncn5C)c4CC3CC12` (stereo not shown) [CG], the “MIC Gram Negative (EC D1-209)” value against E. coli (EC D1-209) is reported as “* (weak antibacterial activity (greater than about 8 μg/mL))”. For the same molecule, in the test on SMN2 mRNA, the “Cmax” value is “* (concentrations of greater than 40 μM)” and the “Emax (maximum percentage exon 7 inclusion observed)” value is recorded as “** (values of 10-20%)”. Besides, the “MIC Gram Positive (SA RN450)” value in the test on S. aureus (SA RN450) is recorded as “*** (Good antibacterial activity (e.g., less than about 4 μg/mL))”.

One may read the MIC as the smallest concentration in the dilution series that meets the test's criterion for growth inhibition. Low readings indicate a more susceptible organism, high ones a less susceptible organism. Turning to `CCN(CC)CCNC(=O)c1cccc(-c2ccc(O)c3c2C[C@H]2C[C@H]4[C@H](N(C)C)C(O)=C(C(N)=O)C(=O)[C@@]4(O)C(O)=C2C3=O)c1` [Compound E, (4S,4aS,5aR,12aS)-7-[3-(2-Diethylamino-ethylcarbamoyl)-phenyl]-4-dimethylamino-3,10,12,12a-tetrahydroxy-1,11-dioxo-1,4,4a,5,5a,6,11,12a-octahydro-naphthacene-2-carboxylic Acid Amide], the MIC against E. coli (EC D1-209) (Escherichia coli) is more than 8 µg/mL. In the test with SMN2 mRNA, the “Cmax” value is “** (concentrations between 40 and 10 μM)”; the “Emax (maximum percentage exon 7 inclusion observed)” value is reported as “*** (values greater than 20%)”. In the test on S. aureus (SA RN450) (Staphylococcus aureus), the MIC is less than 4 µg/mL.
